{"source": "patent US7256178B2", "about": "“Physiologically active substances” (priority 2002, dated 2007)", "key": {"[1]": {"assay": "Stability in an aqueous solution (HPLC)", "type": "physicochemical", "details": "for Remaining percentage (%): pH 7 Britton-Robinson buffer solution, 25° C., 24 hours", "protocol": "The compound of the formula (I) was dissolved in DMSO at a concentration of 10 to 20 mM, and the solution was diluted with a pH 7 Britton-Robinson buffer solution to about 500-fold. This solution was used as a sample solution, and was incubated at 25° C. for 24 hours.\nThe sample solution before and after the incubation was analyzed using high-performance liquid chromatography to obtain a chromatogram. The percentage of the compound remaining in the sample solution after the incubation was determined from the peak area of the chromatogram."}, "[2]": {"test_system": "P388 mouse leukemia cells", "details": "cited from earlier work"}, "[3]": {"test_system": "P388 mouse leukemia cells", "details": "RPM-1640 culture medium; cited from earlier work"}, "[4]": {"test_system": "L-1210 mouse leukemia cells", "details": "RPM-1640 culture medium; cited from earlier work"}, "[5]": {"test_system": "HL-60 human leukemia cells", "details": "RPM-1640 culture medium; cited from earlier work"}}, "data": [{"smiles": "CCC(OC)C(C)C1OC1C(O)C(C)/C=C/C=C(\\C)C1OC(=O)CC(O)CCC(C)(O)C(OC(C)=O)/C=C/C1C", "note": "(stereo not shown) [FD-895]", "values": [{"measurement": "Stability in an aqueous solution (in words)", "setting": "[1]", "value": "instable in an aqueous solution"}, {"measurement": "Remaining percentage (%)", "setting": "[1]", "value": 83.0, "unit": "%"}, {"measurement": "Remaining percentage (%)", "setting": "[1]; listed as FD895", "value": 83, "unit": "%"}, {"measurement": "Antitumor activity in vivo", "setting": "[2]", "value": "did not show antitumor activity"}, {"measurement": "Cytotoxic activity in vitro", "setting": "[3]", "value": "has cytotoxic activity"}, {"measurement": "Cytotoxic activity in vitro", "setting": "[4]", "value": "has cytotoxic activity"}, {"measurement": "Cytotoxic activity in vitro", "setting": "[5]", "value": "has cytotoxic activity"}]}]}
